{"source": "patent US20070081967A1", "about": "“Revitalizing hair follicles with total parenteral nutrition or hyperalimentation for maximum hair growth” (priority 2005, published 2007)", "key": {"[1]": {"test_system": "alopecia", "conditions": "cited from earlier work"}, "[2]": {"assay": "Solubility of ingredients in solvents during preparation", "conditions": "qualitative", "procedure": "3 grams of azelaic acid was ground up into a powder from “hairs” of this dicarboxylic acid. […] Next, 50 mg of vinpocetine is added to the mortar and also ground to a powder. The use of 10 mg tablets of vinpocetine can be used if the raw material in not available. […] At this point 26 cc (or ml) of isopropyl alcohol is added to the mortar and mixed to form the first suspension. […] These two powders are soluble in water which 5 ml of sterile water is added and stirred. At the point the two products can be combines with the final addition of 12 ml of propylene glycol. […] The final volume of 60 ml can be achieved by the “qs” or “adding up to” the 60 ml mark with sterile water."}}, "note": "Entries after “also recorded” stand apart in the source; their conditions may differ.", "data": [{"smiles": "CC(C)(C)NC(=O)[C@H]1CC[C@H]2[C@@H]3CC[C@H]4NC(=O)C=C[C@]4(C)[C@H]3CC[C@]12C", "note": "[Finasteride]", "values": [{"measurement": "time to loss of new hair after treatment is stopped", "setting": "[1]; after finasteride treatment is stopped", "result": "≤ 1", "unit": "year"}, {"measurement": "time to occurrence of hair growth", "setting": "[1]; balding men, after start of use", "result": "about 3 months"}, {"measurement": "success rate for treating alopecia", "setting": "[1]; reported success rate", "result": 40, "unit": "%"}]}, {"smiles": "CCOC(=O)C1=C[C@]2(CC)CCCN3CCc4c(n1c1ccccc41)[C@@H]32", "note": "[Vinpocetine, 14-ethoxycarbonyl-3 alpha, 16 alpha-ethyl-14, 15-ebumamine]", "values": [{"measurement": "solubility in isopropyl alcohol", "setting": "[2]", "result": "slightly soluable"}, {"measurement": "solubility in organic solvents", "setting": "[2]; solvents named in value", "result": "only soluable in DMSO, 100% ethanol or acetone; also recorded: only soluble in DMSO, 100% ethanol or acetone"}]}]}
